Experimental data: publication PMC7614683, “A small molecule PI3Kα activator for cardioprotection and neuroregeneration” (Nature, 2023)
Read-outs that look alike come from different tables or passages of the source.

Legend:
Test in all cases: SelectScreen Z-LYTE kinase activity assay (SI Table 6)
Assay type in all cases: biochemical
[1] = molecular target: protein kinases of the Z-LYTE panel (Homo sapiens, UniProt P11362)
Method: (§1) 133 protein kinases and 7 lipid kinases were counterscreened, with 1938 used at 1 μM, using the Adapta, Lantha and Z-LYTE assays (SelectScreen Kinase Profiling Service; Thermofisher – experimental details of these assays can be found here: https://www.thermofisher.com/uk/en/home/industrial/pharma-biopharma/drug-discovery-development/target-and-lead-identification-and-validation/kinasebiology/kinase-activity-assays.html. The tree represention in KinMap[59] generated courtesy of Cell Signaling Technology, Inc. (www.cellsignal.com). mTORC1 (mTOR/RAPTOR/LST8) protein complex and ATM kinase and substrates were produced as previously described[57],[60]. Screening of 1938 was conducted using SuperSep Phos-Tag 50 μmol/l 100 x 100 x 6.6 mm 17-well (192-18001/199-18011) gels. For ATM assays, 100 nM ATM was incubated for 30 min at 30°C with 5 μM GST-p53 and 1 mM ATP, in the absence or presence of 200 μM 1938 in ATM Kinase Buffer (50 mM HEPES pH 7.5, 100 mM NaCl, 10% glycerol, 2 mM […], 5 mM MgCl2). As a positive control for ATM activation, the same reaction was carried out with 100 nM ATM/5 μM GST-p53/1 mM ATP in the presence of 100 nM Mre11-Rad50-Nbs1 (MRN) complex, a known activator of ATM[61]. For mTORC1 assays, 50 nM mTORC1 complex (mTOR/LST8/RAPTOR) was incubated for 3 h at 30°C with 15 μM 4E-BP1, 10 mM MgCl2 and 250 μM ATP, in the absence or presence of 200 μM 1938. As a ‘positive’ control, a higher concentration (150 nM) of mTORC1 complex (mTOR/LST8/RAPTOR) was incubated for 3 h at 30°C with 15 μM 4E-BP1, 10 mM MgCl2 and 250 μM ATP. Kinase reactions were quenched by addition of SDS-PAGE Loading Buffer (as per manufacturer’s instructions) and freezing at -20°C before being run on the Phos-tag gels at 150 V for 90 min. Gels were then stained using InstantBlue™ Coomassie, and quantified using BioRad Image Lab Software. Kinase assays were carried out in triplicate.

[2] = molecular target: protein kinases of the Z-LYTE panel (Homo sapiens, UniProt P07949)
Method: as §1

[3] = molecular target: protein kinases of the Z-LYTE panel (Homo sapiens, UniProt P43405)
Method: as §1

[4] = molecular target: protein kinases of the Z-LYTE panel (Homo sapiens, UniProt P07949, V804L)
Method: as §1

[5] = molecular target: T1, protein kinases of the Z-LYTE panel (Homo sapiens, UniProt Q13043)
T1 sequence (Q13043 1-487): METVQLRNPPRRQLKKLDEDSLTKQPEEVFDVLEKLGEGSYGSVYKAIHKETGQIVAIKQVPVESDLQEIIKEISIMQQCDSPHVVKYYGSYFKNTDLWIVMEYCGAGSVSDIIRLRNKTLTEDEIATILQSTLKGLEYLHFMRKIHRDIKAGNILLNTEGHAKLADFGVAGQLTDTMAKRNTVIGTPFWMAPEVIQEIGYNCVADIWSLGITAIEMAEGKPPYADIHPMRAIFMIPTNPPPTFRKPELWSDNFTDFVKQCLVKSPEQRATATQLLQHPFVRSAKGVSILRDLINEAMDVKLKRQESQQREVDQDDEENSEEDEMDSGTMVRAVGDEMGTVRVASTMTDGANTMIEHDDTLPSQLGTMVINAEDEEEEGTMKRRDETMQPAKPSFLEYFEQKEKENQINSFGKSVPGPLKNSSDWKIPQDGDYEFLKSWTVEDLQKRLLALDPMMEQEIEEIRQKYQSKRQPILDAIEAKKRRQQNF
Method: as §1

[6] = molecular target: protein kinases of the Z-LYTE panel (Homo sapiens, UniProt P23443)
Method: as §1

[7] = molecular target: protein kinases of the Z-LYTE panel (Homo sapiens, UniProt P35968)
Method: as §1

[8] = molecular target: protein kinases of the Z-LYTE panel (Homo sapiens, UniProt P08069)
Method: as §1

[9] = molecular target: protein kinases of the Z-LYTE panel (Homo sapiens, UniProt P23458)
Method: as §1

[10] = molecular target: protein kinases of the Z-LYTE panel (Homo sapiens, UniProt Q13177)
Method: as §1

[11] = molecular target: protein kinases of the Z-LYTE panel (Homo sapiens, UniProt P04626)
Method: as §1

[12] = molecular target: protein kinases of the Z-LYTE panel (Homo sapiens, UniProt P08581)
Method: as §1

[13] = molecular target: protein kinases of the Z-LYTE panel (Homo sapiens, UniProt P09619)
Method: as §1

Sequence of protein kinases of the Z-LYTE panel (Homo sapiens, UniProt P07949, V804L) (P07949 29-1114 V804L): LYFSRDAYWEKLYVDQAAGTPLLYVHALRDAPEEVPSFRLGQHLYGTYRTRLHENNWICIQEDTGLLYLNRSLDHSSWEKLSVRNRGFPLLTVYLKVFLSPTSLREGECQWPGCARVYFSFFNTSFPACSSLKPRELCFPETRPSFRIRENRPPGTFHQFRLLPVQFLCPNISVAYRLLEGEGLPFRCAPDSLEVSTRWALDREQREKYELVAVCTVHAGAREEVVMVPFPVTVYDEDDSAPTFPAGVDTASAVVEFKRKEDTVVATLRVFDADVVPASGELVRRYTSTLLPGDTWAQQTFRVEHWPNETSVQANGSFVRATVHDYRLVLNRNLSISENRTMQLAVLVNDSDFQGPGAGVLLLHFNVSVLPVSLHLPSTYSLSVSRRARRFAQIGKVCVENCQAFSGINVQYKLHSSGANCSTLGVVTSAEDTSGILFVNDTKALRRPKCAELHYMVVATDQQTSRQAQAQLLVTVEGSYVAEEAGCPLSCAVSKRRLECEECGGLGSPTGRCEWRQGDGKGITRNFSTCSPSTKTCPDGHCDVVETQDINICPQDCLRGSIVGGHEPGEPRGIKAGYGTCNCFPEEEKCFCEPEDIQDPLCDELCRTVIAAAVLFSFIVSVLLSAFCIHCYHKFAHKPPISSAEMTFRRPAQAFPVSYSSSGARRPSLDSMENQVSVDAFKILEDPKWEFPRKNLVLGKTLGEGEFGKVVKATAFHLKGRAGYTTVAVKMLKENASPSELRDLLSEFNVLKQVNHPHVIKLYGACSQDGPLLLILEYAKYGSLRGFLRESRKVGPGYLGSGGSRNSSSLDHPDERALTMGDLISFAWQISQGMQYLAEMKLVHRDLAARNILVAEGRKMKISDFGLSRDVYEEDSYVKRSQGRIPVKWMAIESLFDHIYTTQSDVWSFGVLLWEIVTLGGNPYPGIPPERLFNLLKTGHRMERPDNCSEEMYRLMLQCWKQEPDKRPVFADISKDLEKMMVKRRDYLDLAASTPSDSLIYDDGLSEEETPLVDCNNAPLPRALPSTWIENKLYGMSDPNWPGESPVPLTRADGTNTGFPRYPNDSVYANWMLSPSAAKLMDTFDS
Sequence of protein kinases of the Z-LYTE panel (Homo sapiens, UniProt P23443) (P23443 whole entry): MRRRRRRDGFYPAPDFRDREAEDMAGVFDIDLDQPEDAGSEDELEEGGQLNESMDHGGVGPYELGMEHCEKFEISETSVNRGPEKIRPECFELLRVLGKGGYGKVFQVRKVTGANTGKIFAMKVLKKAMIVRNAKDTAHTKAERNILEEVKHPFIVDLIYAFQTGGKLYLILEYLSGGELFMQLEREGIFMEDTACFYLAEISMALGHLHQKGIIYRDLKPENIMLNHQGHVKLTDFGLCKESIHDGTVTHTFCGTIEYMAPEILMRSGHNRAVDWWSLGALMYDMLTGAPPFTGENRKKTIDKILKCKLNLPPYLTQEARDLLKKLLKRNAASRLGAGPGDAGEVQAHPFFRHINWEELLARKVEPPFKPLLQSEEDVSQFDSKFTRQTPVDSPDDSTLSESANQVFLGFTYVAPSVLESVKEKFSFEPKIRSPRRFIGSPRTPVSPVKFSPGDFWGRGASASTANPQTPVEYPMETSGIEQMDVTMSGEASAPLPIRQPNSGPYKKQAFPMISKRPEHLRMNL
Sequence of protein kinases of the Z-LYTE panel (Homo sapiens, UniProt Q13177) (Q13177 whole entry): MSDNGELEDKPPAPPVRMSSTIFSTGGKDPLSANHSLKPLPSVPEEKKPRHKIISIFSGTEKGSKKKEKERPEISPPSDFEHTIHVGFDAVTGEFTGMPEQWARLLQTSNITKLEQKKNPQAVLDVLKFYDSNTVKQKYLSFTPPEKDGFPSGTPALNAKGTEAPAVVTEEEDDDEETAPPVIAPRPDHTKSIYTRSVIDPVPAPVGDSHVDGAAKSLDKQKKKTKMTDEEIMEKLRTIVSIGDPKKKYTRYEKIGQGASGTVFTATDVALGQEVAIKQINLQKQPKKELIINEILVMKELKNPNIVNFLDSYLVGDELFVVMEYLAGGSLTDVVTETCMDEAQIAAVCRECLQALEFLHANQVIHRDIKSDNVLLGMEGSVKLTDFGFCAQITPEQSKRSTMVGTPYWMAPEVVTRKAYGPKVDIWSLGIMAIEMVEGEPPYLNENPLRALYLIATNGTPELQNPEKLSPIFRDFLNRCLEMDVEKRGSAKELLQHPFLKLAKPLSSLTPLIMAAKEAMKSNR
Sequence of protein kinases of the Z-LYTE panel (Homo sapiens, UniProt P08069) (P08069 31-1367): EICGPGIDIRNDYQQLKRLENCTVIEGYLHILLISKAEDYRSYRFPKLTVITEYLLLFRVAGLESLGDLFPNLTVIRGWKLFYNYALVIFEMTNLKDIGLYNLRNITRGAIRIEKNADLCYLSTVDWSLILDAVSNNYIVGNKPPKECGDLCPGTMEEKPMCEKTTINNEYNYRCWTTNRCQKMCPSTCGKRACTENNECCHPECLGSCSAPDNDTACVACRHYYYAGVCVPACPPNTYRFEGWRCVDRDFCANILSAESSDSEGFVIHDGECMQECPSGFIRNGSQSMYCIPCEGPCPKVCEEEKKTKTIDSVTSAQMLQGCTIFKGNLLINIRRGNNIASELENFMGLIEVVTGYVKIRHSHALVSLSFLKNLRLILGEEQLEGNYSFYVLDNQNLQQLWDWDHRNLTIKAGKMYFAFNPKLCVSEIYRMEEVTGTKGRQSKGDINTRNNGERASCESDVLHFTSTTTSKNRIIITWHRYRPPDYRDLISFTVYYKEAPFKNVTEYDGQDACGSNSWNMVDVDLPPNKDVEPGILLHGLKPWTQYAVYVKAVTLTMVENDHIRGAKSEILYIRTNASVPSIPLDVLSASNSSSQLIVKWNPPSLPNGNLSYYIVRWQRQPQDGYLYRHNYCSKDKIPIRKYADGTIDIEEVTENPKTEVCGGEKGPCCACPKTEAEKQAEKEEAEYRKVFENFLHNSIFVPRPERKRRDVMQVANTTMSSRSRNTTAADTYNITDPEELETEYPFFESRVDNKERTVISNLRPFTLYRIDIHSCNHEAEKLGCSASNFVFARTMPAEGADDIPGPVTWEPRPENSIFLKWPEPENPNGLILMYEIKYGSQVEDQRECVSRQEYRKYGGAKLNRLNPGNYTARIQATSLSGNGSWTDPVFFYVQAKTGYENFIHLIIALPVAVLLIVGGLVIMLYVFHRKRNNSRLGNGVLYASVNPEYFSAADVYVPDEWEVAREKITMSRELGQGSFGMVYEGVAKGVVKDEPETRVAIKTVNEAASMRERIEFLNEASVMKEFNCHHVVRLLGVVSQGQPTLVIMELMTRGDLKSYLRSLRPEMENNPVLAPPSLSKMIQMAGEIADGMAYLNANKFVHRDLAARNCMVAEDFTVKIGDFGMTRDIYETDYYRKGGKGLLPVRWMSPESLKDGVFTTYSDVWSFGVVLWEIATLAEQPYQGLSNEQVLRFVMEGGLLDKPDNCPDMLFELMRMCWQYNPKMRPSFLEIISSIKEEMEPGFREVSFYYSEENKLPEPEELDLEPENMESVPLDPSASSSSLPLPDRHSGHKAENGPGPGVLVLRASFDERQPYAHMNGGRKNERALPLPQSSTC
Sequence of protein kinases of the Z-LYTE panel (Homo sapiens, UniProt P08581) (P08581 25-1390): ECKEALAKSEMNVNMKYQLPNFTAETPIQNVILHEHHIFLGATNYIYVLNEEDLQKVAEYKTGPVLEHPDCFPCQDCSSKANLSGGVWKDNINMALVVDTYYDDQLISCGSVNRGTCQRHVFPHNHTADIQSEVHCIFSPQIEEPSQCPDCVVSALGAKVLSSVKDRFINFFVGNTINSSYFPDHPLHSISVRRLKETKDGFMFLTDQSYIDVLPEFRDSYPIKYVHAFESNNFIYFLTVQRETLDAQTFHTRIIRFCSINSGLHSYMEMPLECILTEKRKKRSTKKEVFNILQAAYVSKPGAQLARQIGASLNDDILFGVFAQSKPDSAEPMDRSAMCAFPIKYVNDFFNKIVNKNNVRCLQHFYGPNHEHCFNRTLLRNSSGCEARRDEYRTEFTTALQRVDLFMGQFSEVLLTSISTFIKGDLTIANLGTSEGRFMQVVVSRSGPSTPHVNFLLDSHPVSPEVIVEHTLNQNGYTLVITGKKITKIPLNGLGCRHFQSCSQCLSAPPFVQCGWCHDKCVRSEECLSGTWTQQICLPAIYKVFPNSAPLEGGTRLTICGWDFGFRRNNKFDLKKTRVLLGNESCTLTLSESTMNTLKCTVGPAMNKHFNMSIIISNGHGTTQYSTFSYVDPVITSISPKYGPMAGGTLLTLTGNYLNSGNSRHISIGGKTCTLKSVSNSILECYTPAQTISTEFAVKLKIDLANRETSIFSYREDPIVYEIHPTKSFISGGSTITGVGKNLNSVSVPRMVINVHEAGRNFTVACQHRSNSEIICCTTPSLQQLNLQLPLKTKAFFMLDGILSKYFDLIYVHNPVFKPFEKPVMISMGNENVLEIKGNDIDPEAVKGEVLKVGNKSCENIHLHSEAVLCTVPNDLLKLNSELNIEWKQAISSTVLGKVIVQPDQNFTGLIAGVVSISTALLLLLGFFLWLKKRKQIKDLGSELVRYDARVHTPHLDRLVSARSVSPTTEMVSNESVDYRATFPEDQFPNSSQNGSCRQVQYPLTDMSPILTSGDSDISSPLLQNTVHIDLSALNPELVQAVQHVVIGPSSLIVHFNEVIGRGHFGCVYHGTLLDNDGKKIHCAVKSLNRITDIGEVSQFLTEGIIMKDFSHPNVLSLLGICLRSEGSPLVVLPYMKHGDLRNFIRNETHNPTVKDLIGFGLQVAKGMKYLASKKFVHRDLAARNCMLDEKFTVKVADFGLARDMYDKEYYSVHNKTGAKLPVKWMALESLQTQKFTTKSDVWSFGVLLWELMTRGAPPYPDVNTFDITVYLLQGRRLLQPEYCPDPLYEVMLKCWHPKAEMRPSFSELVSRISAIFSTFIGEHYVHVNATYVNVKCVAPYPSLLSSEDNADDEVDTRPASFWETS
Sequence of protein kinases of the Z-LYTE panel (Homo sapiens, UniProt P07949) (P07949 29-1114): as the sequence (P07949 29-1114 V804L) above, with L776V counted along it

`CCN1CCN(c2ccc(Nc3cc(Nc4cccc5c4N(C(C)=O)CC5)ccn3)cc2)CC1` [Compound 1938] gave an inhibition at 1 µM ([1]; read-out: % Inhibition Point 1) of 25%, an inhibition at 1 µM ([1]; read-out: % Inhibition Point 2) of 23% and an inhibition at 1 µM ([1]; read-out: % Inhibition mean) of 24%. The inhibition at 1 µM ([2]; read-out: % Inhibition Point 1) was 15%, the inhibition at 1 µM ([2]; read-out: % Inhibition Point 2) was 15% and the inhibition at 1 µM ([2]; read-out: % Inhibition mean) was 15%. The inhibition at 1 µM ([3]; read-out: % Inhibition Point 1) was 3%, the inhibition at 1 µM ([3]; read-out: % Inhibition Point 2) was 3.66% and the inhibition at 1 µM ([3]; read-out: % Inhibition mean) was 3.32%. For the same compound, the inhibition at 1 µM ([4]; read-out: % Inhibition Point 1) was 11%, the inhibition at 1 µM ([4]; read-out: % Inhibition Point 2) was 11% and the inhibition at 1 µM ([4]; read-out: % Inhibition mean) was 11%. It also gave an inhibition at 1 µM ([5]; read-out: % Inhibition Point 1) of 4%, an inhibition at 1 µM ([5]; read-out: % Inhibition Point 2) of 1.07% and an inhibition at 1 µM ([5]; read-out: % Inhibition mean) of 2.46%. It also gave an inhibition at 1 µM ([6]; read-out: % Inhibition Point 1) of 2.67%, an inhibition at 1 µM ([6]; read-out: % Inhibition Point 2) of -0.609% and an inhibition at 1 µM ([6]; read-out: % Inhibition mean) of 1%. It also gave an inhibition at 1 µM ([7]; read-out: % Inhibition Point 1) of 10%, an inhibition at 1 µM ([7]; read-out: % Inhibition Point 2) of 6.41% and an inhibition at 1 µM ([7]; read-out: % Inhibition mean) of 8%. For the same compound, the inhibition at 1 µM ([8]; read-out: % Inhibition Point 1) was 5.5%, the inhibition at 1 µM ([8]; read-out: % Inhibition Point 2) was 5.33% and the inhibition at 1 µM ([8]; read-out: % Inhibition mean) was 5.41%. It also gave an inhibition at 1 µM ([9]; read-out: % Inhibition Point 1) of -2%, an inhibition at 1 µM ([9]; read-out: % Inhibition Point 2) of -2% and an inhibition at 1 µM ([9]; read-out: % Inhibition mean) of -2%. It also gave an inhibition at 1 µM ([10]; read-out: % Inhibition Point 1) of 5%, an inhibition at 1 µM ([10]; read-out: % Inhibition Point 2) of 4.68% and an inhibition at 1 µM ([10]; read-out: % Inhibition mean) of 5%. For the same compound, the inhibition at 1 µM ([11]; read-out: % Inhibition Point 1) was -2.48%, the inhibition at 1 µM ([11]; read-out: % Inhibition Point 2) was 2.33% and the inhibition at 1 µM ([11]; read-out: % Inhibition mean) was -0.0739%. For the same compound, the inhibition at 1 µM ([12]; read-out: % Inhibition Point 1) was 8%, the inhibition at 1 µM ([12]; read-out: % Inhibition Point 2) was 29% and the inhibition at 1 µM ([12]; read-out: % Inhibition mean) was 19%. For the same compound, the inhibition at 1 µM ([13]; read-out: % Inhibition Point 1) was 7%, the inhibition at 1 µM ([13]; read-out: % Inhibition Point 2) was 7% and the inhibition at 1 µM ([13]; read-out: % Inhibition mean) was 7%.
